The record followed here is patent publication US8071810B2, “C5a receptor antagonists” (Jerini AG, priority 2005, dated 2011).

SMILES strings stand for the structures.

The first assay has as its target T1, human C5a receptor (CD88) (Homo sapiens, UniProt P21730).
T1 construct: expressed in transfected cells; host or cells: rat basophilic leukemia (RBL) cells, stably transfected
T1 sequence (P21730 1-350): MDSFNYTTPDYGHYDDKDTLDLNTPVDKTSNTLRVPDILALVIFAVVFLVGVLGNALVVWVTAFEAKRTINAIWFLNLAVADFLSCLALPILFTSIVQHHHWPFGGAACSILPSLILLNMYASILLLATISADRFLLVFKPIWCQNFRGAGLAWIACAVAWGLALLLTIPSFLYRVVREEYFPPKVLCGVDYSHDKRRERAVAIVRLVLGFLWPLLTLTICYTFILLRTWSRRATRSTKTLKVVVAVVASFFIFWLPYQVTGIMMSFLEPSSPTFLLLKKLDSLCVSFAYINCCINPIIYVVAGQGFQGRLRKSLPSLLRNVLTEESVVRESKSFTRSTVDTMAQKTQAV
As to the kind of experiment: C5a induced enzyme (glucosaminidase) release assay in RBL cells expressing the human C5a receptor (Example 28). It counts as cell-based. As to conditions: IC50 for the inhibition of C5a induced enzyme release, RBL cells with human C5aR. Here is the method: Basophile leukemia cells from rats (RBL), which express the human C5a receptor (CD88), are cultivated in DMEM with 10% fetal calf serum, 100 U/ml penicillin, 100 μg/ml streptomycin and 2 mM glutamin (all constituents are from Biochrome, Berlin) at 37° C. and with 10% CO2 until a confluent layer is obtained. All following details refer to a tissue culture flask with 75 cm^2 surface. The used up medium is removed. The cells are washed with 10 ml PBS (Dulbecco's PBS, Biochrome) and then covered with 3 ml cell dissociation solution (CDS, Sigma). The cells are incubated for 1 minute at room temperature. Then the CDS is removed and the cells are incubated for further 10-15 minutes at 37° C. to detach the cells completely from the flask. 20 μl solution of the compound to be testet are used in the assay. […] The dilution series are prepared in ⅓ or ½ steps. […] The cells are counted and centrifuged (200 g, 10 min). The cell pellet is taken up with pre-heated HAG-CM, and the cell density is adjusted to 2×10^6 Zellen/ml. The cells are incubated for 5 minutes at 37° C. 2.7 μl of a cytochalasin B solution (1000 μg/ml in DMSO, Sigma) are added per ml cell suspension. The Zellen are incubated for another 3 min at 37° C. Then, 75 μl of the cell suspension are added to the 20 μl solution containing the compounds to be tested. […] The cells are again incubated for 10 minutes at 37° C. […] After this the plates are put on ice and centrifuged for 3 minutes at 1200×g and 4° C. […] The plate is incubated for 1 hour at 37° C. […] The IC50 value is determined by solving the four parameter equation y=((A−D)/(1+(x/C)^B))+D.
On to `COc1ccc2c(c1)C(C(=O)N(Cc1ccc(N(C)C)cc1)c1ccc(C(C)C)cc1)CCC2` (stereo not drawn) [compound 12, 7-methoxy-1,2,3,4-tetrahydro-naphthalin-1-carbonsäure (4-dimethylamino-benzyl)-(4-isopropyl-phenyl)-amide, reference compound], for which half-maximal inhibition (IC50) was put at 89 nM.

The same assay, now with this note: RBL cells with human C5aR; read-out: IC50 for the inhibition of C5a induced enzyme release.
As to `CCc1c(N)cc(Cl)c(CC)c1NC(=O)N(c1ccc(C(C)C)cc1)[C@@H](C)c1ccc(OC)cc1` [compound 66, (S)-3-(3-amino-5-chloro-2,6-diethyl-phenyl)-1-(4-isopropyl-phenyl)-1-[1-(4-methoxy-phenyl)-ethyl]-urea], the IC50 (usually the midpoint of a concentration-inhibition curve) was determined as 55 nM. For the molecule `CCc1c(N)cc(Cl)c(CC)c1NC(=O)N(c1ccc(C(C)C)cc1)[C@@H](C)c1ccc(C)cc1` [(S)-3-(3-Amino-5-chlor-2,6-diethyl-phenyl)-1-(4-isopropyl-ph], the concentration for half-maximal inhibition (IC50) amounted to 32 nM.

Staying with this assay, now noted: inhibition of C5a induced enzyme release, RBL cells with human C5aR; read-out: Activity-range (antagonistic activity, IC50 enzyme release).
As for `CCc1c(N)cc(Cl)c(CC)c1NC(=O)N(Cc1ccc(C)cc1)c1ccc(C(C)C)cc1` [compound 34, 3-(3-amino-5-chloro-2,6-diethyl-phenyl)-1-(4-isopropyl-phenyl)-1-(4-methyl-benzyl)-urea], the concentration for half-maximal inhibition (IC50) lay within 60 to 200 nM. As for `CCNc1ccc(N(Cc2ccc(Cl)cc2)C(=O)Nc2c(CC)c(N)cc(Cl)c2CC)cc1` [compound 136, 3-(3-amino-5-chloro-2,6-diethyl-phenyl)-1-(4-chloro-benzyl)-1-(4-ethylamino-phenyl)-urea], the IC50 was below 60 nM. On to `CCc1c(N)cc(Cl)c(CC)c1NC(=O)N(c1ccc(OC)c(F)c1)[C@@H](C)c1ccc(Cl)cc1` [compound 94, (S)-3-(3-amino-5-chloro-2,6-diethyl-phenyl)-1-[1-(4-chloro-phenyl)-ethyl]-1-(3-fluoro-4-methoxy-phenyl)-urea], for which the concentration for half-maximal inhibition (IC50) is below 60 nM. Regarding `CCc1c(Cl)cc(N=O)c(CC)c1NC(=O)N(c1ccc(NC)cc1)[C@@H](C)c1ccc(Cl)cc1` [compound 133, (S)-3-(3-chloro-2,6-diethyl-5-nitroso-phenyl)-1-[1-(4-chloro-phenyl)-ethyl]-1-(4-methylamino-phenyl)-urea], the IC50 is below 60 nM. Take `CCc1c(N)cc(Cl)c(CC)c1NC(=O)N(c1ccc(NC)cc1)C(C)c1ccc2c(c1)ncn2C` (stereo not drawn) [compound 138, 3-(3-amino-5-chloro-2,6-diethyl-phenyl)-1-(4-methylamino-phenyl)-1-[1-(1-methyl-1H-benzoimidazol-5-yl)-ethyl]-urea]: the IC50 fell in the range of 60 to 200 nM. `CCc1c(N)cc(Cl)c(CC)c1NC(=O)N(Cc1cccnc1)c1ccc(C(C)C)cc1` [compound 74, 3-(3-amino-5-chloro-2,6-diethyl-phenyl)-1-(4-isopropyl-phenyl)-1-pyridin-3-ylmethyl-urea]: the IC50 lay within 200 to 5000 nM.

Consider `CCc1ccc(N(C(=O)Nc2c(CC)c(N)cc(Cl)c2CC)C2CCc3cc(Cl)ccc32)cc1` (stereo not drawn) [compound 104, 3-(3-amino-5-chloro-2,6-diethyl-phenyl)-1-(5-chloro-indane-1-yl)-1-(4-ethyl-phenyl)-urea], for which the IC50 lay in the range of 60 to 200 nM. As for `CCc1c(N)cc(Cl)c(CC)c1NC(=O)N(Cc1ccccc1)c1ccc(N(C)C)cc1` [compound 128, 3-(3-amino-5-chloro-2,6-diethyl-phenyl)-1-benzyl-1-(4-dimethylamino-phenyl)-urea], the IC50 was in the range of 200 to 5000 nM. Turning to `COc1ccc2c(c1)C(C(=O)N(Cc1ccc(N(C)C)cc1)c1ccc(C(C)C)cc1)CCC2` (stereo not drawn) [compound 12, 7-methoxy-1,2,3,4-tetrahydro-naphthalin-1-carbonsäure (4-dimethylamino-benzyl)-(4-isopropyl-phenyl)-amide, reference compound], the IC50 was in the range of 60 to 200 nM.

As to `CCc1ccc(N(Cc2ccc(N)cc2)C(=O)Nc2c(CC)c(N)cc(Cl)c2CC)cc1` [compound 116, 1-(4-amino-benzyl)-3-(3-amino-5-chloro-2,6-diethyl-phenyl)-1-(4-ethyl-phenyl)-urea], the IC50 is 200 to 5000 nM. Regarding `COc1ccc(CN(C(=O)Nc2c(C(C)C)ccc(N)c2C(C)C)c2ccc(C(C)C)cc2)cc1` [compound 25, 3-(3-Amino-2,6-diisopropyl-phenyl)-1-(4-isopropyl-phenyl)-1-(4-methoxy-benzyl)-urea], the half-maximal inhibitory concentration (IC50) fell in the range of 200 to 5000 nM. Still for that read-out and setting: the result for `CCc1c(N)cc(Cl)c(CC)c1NC(=O)N(Cc1ccc(Cl)cc1)c1ccc(NC(C)=O)cc1` [compound 140, N-{4-[3-(3-amino-5-chloro-2,6-diethyl-phenyl)-1-(4-chloro-benzyl)-ureido]-phenyl}-acetamide] reads 200 to 5000 nM; that for `CCc1ccc(N)c(CC)c1NC(=O)N(CC1CCCCC1)c1ccc(C(C)C)cc1` [compound 61, 3-(3-amino-2,6-diethyl-phenyl)-1-cyclohexylmethyl-1-(4-isopropyl-phenyl)-urea], 200 to 5000 nM; that for `CCc1c(N)cc(Cl)c(CC)c1NC(=O)N(Cc1ccc(Cl)cc1)c1ccc(OC(F)F)cc1` [compound 117, 3-(3-amino-5-chloro-2,6-diethyl-phenyl)-1-(4-chloro-benzyl)-1-(4-difluoromethoxy-phenyl)-urea], 200 to 5000 nM. As to `CCc1c(Cl)cc(NCC(=O)N(C)C)c(CC)c1NC(=O)N(Cc1ccc(OC)cc1)c1ccc(C(C)C)cc1` [compound 37, 2-{5-chloro-2,4-diethyl-3-[3-(4-isopropyl-phenyl)-3-(4-methoxy-benzyl)-ureido]-phenylamino}-N,N-dimethyl-acetamide], the IC50 fell in the range of 200 to 5000 nM. Consider `CCc1c(N)cc(Cl)c(CC)c1NC(=O)N(CCc1ccc(C)cc1)c1ccc(C(C)C)cc1` [compound 52, 3-(3-amino-5-chloro-2,6-diethyl-phenyl)-1-(4-isopropyl-phenyl)-1-(2-p-tolyl-ethyl)-urea], for which the IC50 is 200 to 5000 nM. On the same count and under the same terms, next, `CCc1ccc(N)c(CC)c1NC(=O)N(c1ccc(C(C)C)cc1)[C@H](C)c1ccc(OC)cc1` [compound 70, (R)-3-(3-amino-2,6-diethyl-phenyl)-1-(4-isopropyl-phenyl)-1-[1-(4-methoxy-phenyl)-ethyl]-urea]: 200 to 5000 nM; `CCc1c(N)cc(Cl)c(CC)c1NC(=O)N(CC1CCCCC1)c1ccc(C(C)C)cc1` [compound 60, 3-(3-amino-5-chloro-2,6-diethyl-phenyl)-1-cyclohexylmethyl-1-(4-isopropyl-phenyl)-urea]: 200 to 5000 nM. Turning to `CCc1ccc(N)c(CC)c1NC(=O)N(Cc1ccc2c(c1)CCO2)c1ccc(C(C)C)cc1` [compound 67, 3-(3-amino-2,6-diethyl-phenyl)-1-(2,3-dihydro-benzofuran-5-ylmethyl)-1-(4-isopropyl-phenyl)-urea], the IC50 is 200 to 5000 nM.

As to `CCc1ccc(N(C(=O)Nc2c(CC)c(N)cc(Cl)c2CC)[C@@H](C)c2ccc(F)cc2)cc1` [compound 82, (S)-3-(3-amino-5-chloro-2,6-diethyl-phenyl)-1-(4-ethyl-phenyl)-1-[1-(4-fluoro-phenyl)-ethyl]-urea], the IC50 is 60 to 200 nM. The same measure, in the same setting: the result for `CCc1c(N)cc(Cl)c(CC)c1NC(=O)N(c1ccc(C(C)C)cc1)C1CCc2ccccc21` (stereo not drawn) [compound 84, 3-(3-amino-5-chloro-2,6-diethyl-phenyl)-1-indane-1-yl-1-(4-isopropyl-phenyl)-urea] reads 200 to 5000 nM.

In the case of `CCc1c(N)cc(Cl)c(CC)c1NC(=O)N(Cc1ccc(C)nc1)c1ccc(C(C)C)cc1` [compound 76, 3-(3-amino-5-chloro-2,6-diethyl-phenyl)-1-(4-isopropyl-phenyl)-1-(6-methyl-pyridin-3-ylmethyl)-urea], the IC50 was 60 to 200 nM. Turning to `CCc1ccc(N)c(CC)c1NC(=O)N(Cc1ccc(OC)cc1F)c1ccc(C(C)C)cc1` [compound 59, 3-(3-amino-2,6-diethyl-phenyl)-1-(2-fluoro-4-methoxy-benzyl)-1-(4-isopropyl-phenyl)-urea], the IC50 is 200 to 5000 nM. Same read-out and setting: next, `CCc1c(N)cc(Cl)c(CC)c1NC(=O)N(Cc1ccc2c(c1)CCO2)c1ccc(C(C)C)cc1` [compound 65, 3-(3-amino-5-chloro-2,6-diethyl-phenyl)-1-(2,3-dihydro-benzofuran-5-ylmethyl)-1-(4-isopropyl-phenyl)-urea]: 60 to 200 nM; `CCc1c(N)cc(Cl)c(CC)c1NC(=O)N(c1ccc(C(C)C)cc1)C1CCOc2ccccc21` (stereo not drawn) [compound 89, 3-(3-amino-5-chloro-2,6-diethyl-phenyl)-1-chroman-4-yl-1-(4-isopropyl-phenyl)-urea]: 200 to 5000 nM; `C#Cc1ccc(N(Cc2ccc(OC)cc2)C(=O)Nc2c(CC)c(N)cc(Cl)c2CC)cc1` [compound 85, 3-(3-amino-5-chloro-2,6-diethyl-phenyl)-1-(4-ethynyl-phenyl)-1-(4-methoxy-benzyl)-urea]: 200 to 5000 nM.

The same assay, now with this note: ratio of enzyme release IC50 values.
On to `CCc1c(N)cc(Cl)c(CC)c1NC(=O)N(c1ccc(C(C)C)cc1)[C@@H](C)c1ccc(OC)cc1` [compound 66, (S)-3-(3-amino-5-chloro-2,6-diethyl-phenyl)-1-(4-isopropyl-phenyl)-1-[1-(4-methoxy-phenyl)-ethyl]-urea], for which the “Times higher antagonistic activity of S configuration than (R) configuration (56)” value amounted to 11.
